Test results taken from patent US20260069560A1, “COMPOSITIONS AND METHODS OF USE” (UNIVERSITY OF FLORIDA RESEARCH FOUNDATION, INCORPORATED, priority 2022, published 2026).

What was measured:
[1] = system: primary mouse splenic CD8+ T cells; experiment: Bioassay for IFNγ stimulation in primary splenic CD8+ T cells, flow cytometric analysis; format: cell-based; details: for IFNγ stimulation from primary splenic CD8+ T cells: synthetic compounds, concentration range 0.01-1 mM
Experimental: Isolates are cultured in 96-well deep well plates for 3 days under anaerobic conditions in MEGA media. Cell-free supernatant is obtained by filtering cultures by […] syringe filtration. Cell-free supernatant is added to the serum-free culture media of primary mouse splenic CD8+ T cells at a ratio of 1:100, followed by 6 hours of incubation. After incubation, cells are harvested and stained for flow cytometric analysis, which is performed on the BD Fortessa LSR, followed by analysis using FlowJo.
FIGS. 11A-11F illustrate that synthetic cis-Bac430 induces dose-dependent stimulation of IFNγ production. Representative results are shown for IFNγ stimulation from primary splenic CD8+ T cells by cis-Bac430 and trans-Bac430 at a concentration range between 0.01-0.25 mM (FIG. 11A) or between 0.01-1 mM (FIG. 11B). P values calculated using Mann-Whitney U test compared to unstimulated negative control and PMA/Ionomycin-stimulated positive control. Representative results are shown for the percent of live CD8+ T cells from the bioassay for IFNγ stimulation by cis-Bac430 and trans-Bac430 at a concentration range between 0.01-0.25 mM (FIG. 11C) or between 0.01-1 mM (FIG. 11D). P values calculated using Mann-Whitney U test compared to unstimulated negative control and PMA/Ionomycin-stimulated positive control. Representative results are shown for mean±SEM of fecal Bac430 concentration in μM normalized to stool weight from SPF, germ free (GF) or six-consort colonized germ free mice 2 weeks post-colonization (FIG. 11E) or for each member of the six-consort following 3 days anaerobic culture (FIG. 11F).
Feces collected from R mice were used as source material for high-throughput microbial isolation performed with the GALT Prospector technology. Bacterial identification was performed using MALDI-TOF Biotyper and Sanger sequencing. The cell free supernatants and <3 kDa small molecules of 183 Bacteroides isolates were screened for their ability to stimulate IFNγ production via a bioassay using primary CD8+ T cells and flow cytometric analysis. A consortium composed of six IFNγ-stimulating isolates or NR feces was transplanted into a gnotobiotic mouse model of lung cancer and treated with anti-PD-1, with or without anti-IFNγ monoclonal antibody depletion. Tumors were harvested at endpoint for flow cytometric analysis, and blood serum for IFNγ ELISA. […] Vacuum and high-performance liquid chromatography were used to identify fractions from the cell free supernatant of a single stimulating Bacteroides isolate which stimulate IFNγ production.
To summarize, small molecule characterization was performed using LC-MS/MS and computation pipelines for structural prediction. […]

[2] = system: LLC subcutaneous allograft tumors; experiment: Intratumoral injection of cis-Bac430 in combination with anti-PD-1 therapy in lung tumor-bearing mice; format: in vivo
Experimental: FIGS. 12A-12G illustrate that intratumoral administration of cis-Bac430 in combination with anti-PD-1 therapy reduces tumor volume and enhances systemic anti-tumor immunity. An experimental schematic is shown for testing anti-PD-1 mediated anti-tumor effect in combination with intratumoral injection of cis-Bac430 or DMSO control (FIG. 12A). Representative results are shown for the growth curve of LLC subcutaneous allograft tumors receiving intratumoral injection of either cis-Bac430 (0.043 mg/mouse) or DMSO alone at the same time as anti-PD-1 treatment or saline control (FIG. 12n). Each point represents tumor volume mean±SEM. At day 20, P values are calculated by Mann-Whitney U test. Representative results are shown for the mean±SEM of tumor weight at the endpoint for mice treated with an anti-PD-1 monoclonal antibody or saline control that received intratumoral injection of either cis-Bac430 or DMSO (FIG. 12C). P values are calculated by Mann-Whitney U test. Representative results are shown for the mean±SEM of intratumoral CD8+ frequency at endpoint for mice treated with an anti-PD-1 monoclonal antibody or saline control that received intratumoral injection of either cis-Bac430 or DMSO (FIG. 12D). P values are calculated by Mann-Whitney U test. Representative results are shown for the mean±SEM of intratumoral IFNγ+CD8+ frequency at endpoint for mice treated with an anti-PD-1 monoclonal antibody or saline control that received intratumoral injection of either cis-Bac430 or DMSO (FIG. 12E). P values are calculated by Mann-Whitney U test. Representative results are shown for the mean±SEM of splenic CD8+ frequency at endpoint for mice treated with an anti-PD-1 monoclonal antibody or saline control that received intratumoral injection of either cis-Bac430 or DMSO (FIG. 12F). P values are calculated by Mann-Whitney U test. Representative results are shown for the mean±SEM of splenic IFNγ+CD8+ frequency at endpoint for mice treated with an anti-PD-1 monoclonal antibody or saline control that received intratumoral injection of either cis-Bac430 or DMSO (FIG. 12G). P values are calculated by Mann-Whitney U test.
Lung tumor-bearing mice were injected intratumorally with a 10 μL volume of either 10 mM (0.043 mg/dose) cis-Bac430 or DMSO on each day of anti-PD-1 therapy (FIG. 12A).

[3] = combined with anti-PD-1, endpoint
[4] = intratumoral 0.043 mg/dose on each day of anti-PD-1 therapy, compared to anti-PD-1 or DMSO injection
[5] = intratumoral administration, endpoint

SMILES	proliferative effect on CD8+ T cells (percent of live CD8+ T cells) ([1]; higher concentrations)	IFNγ stimulation from primary splenic CD8+ T cells [1]	IFNγ stimulation from primary splenic CD8+ T cells ([1]; listed as Cis-Bac430)	frequency of intratumoral CD8+ T cells [2, 3]	tumor infiltrating cytotoxic IFNγ+CD8+ T cells [2, 3]	tumor volume at endpoint [2, 4]	tumor weight at endpoint [2, 4]	splenic IFNγ+CD8+ T cells [2, 5]	splenic overall CD8+ T cell frequency [2, 5]
CCCCCC/C=C\CCCCCCCCCC(=O)N[C@@H](Cc1ccccc1)C(=O)O [cis-Bac430]	mild proliferative effect	dose dependent bioactivity	robustly stimulate IFNγ	increased frequency	trend toward increased	significantly smaller	significantly smaller	trend toward increased	decreased
CCCCCC/C=C/CCCCCCCCCC(=O)N[C@@H](Cc1ccccc1)C(=O)O [trans-Bac430]	–	does not demonstrate bioactivity	–	–	–	–	–	–	–
